Usually inhibition stands for the change of the read-out against control, counted positive when it falls. The term IC50 denotes the midpoint of a concentration-inhibition curve.

Results on ten compounds are retold here after US4599336A, “Derivatives of (E)-3-(4-oxo-4H-quinazolin-3-yl)-2-propenamide” (Hoffmann-La Roche Inc., priority 1983, dated 1986).

Like-named read-outs stand apart in the source and are kept apart here.

One assay has as its target T1, TXA2 synthase (Homo sapiens, UniProt P24557).
T1 construct: using microsomal fractions from human platelets as enzyme source; from tissue; host or cells: human platelets, microsomal fraction
T1 sequence (P24557 1-533): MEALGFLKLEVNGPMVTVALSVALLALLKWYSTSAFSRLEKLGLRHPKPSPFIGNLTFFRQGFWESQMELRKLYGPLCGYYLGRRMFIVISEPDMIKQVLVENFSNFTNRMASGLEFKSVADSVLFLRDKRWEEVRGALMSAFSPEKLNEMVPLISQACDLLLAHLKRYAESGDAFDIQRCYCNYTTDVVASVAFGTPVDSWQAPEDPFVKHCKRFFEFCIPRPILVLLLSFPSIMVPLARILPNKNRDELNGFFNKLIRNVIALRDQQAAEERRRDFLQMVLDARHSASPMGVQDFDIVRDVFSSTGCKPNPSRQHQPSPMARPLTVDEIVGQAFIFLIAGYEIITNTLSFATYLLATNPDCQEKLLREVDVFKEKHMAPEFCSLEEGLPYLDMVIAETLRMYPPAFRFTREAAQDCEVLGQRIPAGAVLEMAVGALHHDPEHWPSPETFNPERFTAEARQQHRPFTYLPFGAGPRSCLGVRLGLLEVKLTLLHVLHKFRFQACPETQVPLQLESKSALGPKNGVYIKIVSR
Kind of assay: Thromboxane Synthase Inhibition, In Vitro. The conditions noted are these: human platelet microsomes; for inhibition at 0.1 µM: at 10^-7 M. Type of assay: biochemical. The method, then: TXA2 synthase activity is measured by following the conversion of ^14 C-prostaglandin endoperoxide (PGH2) to ^14 C-thromboxane A2 (TXA2) using microsomal fractions from human platelets as enzyme source. In the aqueous incubation medium, the TXA2 decomposes rapidly into TXB2. The amount of TXA2 synthase is adjusted so that under the conditions of the assay approximately 80-90% of the substrate, PGH2, is converted to product in control tubes. To prepare ^14 C--PGH2, ^14 C--AA (50-60 mCi/mmole; Rose Chem.) is incubated with sheep seminal vesicular gland microsomes for 1.5 minutes at 37° C. and then the ^14 C--PGH2 is extracted with diethylether, purified on columns of Sephadex LH-20 or silicic acid, and stored in acetone at -70° C. Incubations are done as follows. Sufficient ^14 C--PGH2 to yield a final substrate concentration of 10 μM (30,000 cpm) is added to the incubation tubes and then the acetone is removed under nitrogen. The tubes are placed in an ice bath and then 215 μl of ice cold phosphate buffered saline, 10 μl of ethanol (control) or of test drug in ethanol, and 25 μl of the microsomal suspension are added with mixing in that order as rapidly as possible. The tubes are incubated at 22° C. for 2 minutes, the reaction is stopped and then the radioactive products and the uncoverted PGH2 are extracted and analyzed by thin layer chromatography. […] The amount of ^14 C--PGH2 converted to products was used as a measure of TXA2 synthase activity. Inhibitors were tested initially at a final concentration of 100 μM. Results obtained with representative compounds of the present invention in this assay are summarized hereafter in Table I.

Assay [1] has as its system SRS-A-induced constriction of the guinea pig ileum. Kind of assay: Guinea Pig Ileum, In Vitro (inhibition of SRS-A-induced constriction). In kind it is cell-based. The conditions noted are these: Cavia porcellus; SRS-A-induced constriction; in vitro; read-out: Guinea Pig Ileum, IC50. As to the method:
The guinea pig ileum bioassay system has been described by Orange and Austen, Adv. Immunol. […] A 1.5 cm segment is removed from animals weighing 300-400 g. and suspended in an organ bath containing 10 ml. of Tyrodes solution with 10^-6 M atropine sulfate and 10^-6 M pyrilamine maleate. […] The SRS-A utilized in this screen is obtained by challenging chopped lung fragments from actively sensitized guinea pigs with egg albumin, in vitro. A dose-response curve to SRS-A challenge is established for the ileum. […] The drug concentration which inhibits, by 50%, the SRS-A-induced constriction of the guinea pig ileum is determined.

The test system of assay [2] is LTD4-induced blood pressure changes and arrhythmias. Kind of assay: Leukotriene D4 (LTD4) Induced Arrhythmias in Conscious Guinea Pigs. Type of assay: in vivo, guinea pig. The conditions noted are these: 10 mg/kg iv, 5 minutes before LTD4; for Peak Hypertension (Δmm Hg): saline control 30 ± 4; for % Arrhythmias: saline control 33 ± 4; for Peak Hypotension (Δmm Hg): saline control -45 ± 4. As to the method: Male Hartley guinea pigs are anesthetized with sodium pentobarbital and prepared for monitoring direct blood pressure and injecting drugs intravenously by catheterizing the right carotid artery and right jugular vein. Blood pressure, heart rate, and Lead II ECG are monitored in the conscious animal 24 hours later.
Intravenous administration of LTD4 (2.5 μg/kg) is associated with an increase in blood pressure lasting approximately 1-2 minutes followed by a decrease lasting approximately 5-15 minutes. Abnormal beats consisting of premature ventricular contractions, ST elevation or depression, atrioventricular conduction block, or dissociated p waves begin during the rise in blood pressure; the peak effect occurs approximately 40 seconds after LTD4. The percent of abnormal beats was quantitated by determining the number present during the first 2 minutes after injection and calculating the percent increase above the control level. During the hypotensive response, the animal usually collapses during the 2nd or 3rd minute after LTD4 and regains posture approximately 10 minutes after LTD4.
Test compounds were administered 5 minutes before the LTD4 challenge and effects on blood pressure and arrhythmias were monitored.

The target in assay [3] is T2, PAF receptor (dog platelets) (Canis lupus familiaris, UniProt A0A8I3NSH0).
T2 construct: followed by 2×10^7 dog platelets; from tissue; host or cells: dog platelets, washed, intact
T2 sequence (A0A8I3NSH0 1-343): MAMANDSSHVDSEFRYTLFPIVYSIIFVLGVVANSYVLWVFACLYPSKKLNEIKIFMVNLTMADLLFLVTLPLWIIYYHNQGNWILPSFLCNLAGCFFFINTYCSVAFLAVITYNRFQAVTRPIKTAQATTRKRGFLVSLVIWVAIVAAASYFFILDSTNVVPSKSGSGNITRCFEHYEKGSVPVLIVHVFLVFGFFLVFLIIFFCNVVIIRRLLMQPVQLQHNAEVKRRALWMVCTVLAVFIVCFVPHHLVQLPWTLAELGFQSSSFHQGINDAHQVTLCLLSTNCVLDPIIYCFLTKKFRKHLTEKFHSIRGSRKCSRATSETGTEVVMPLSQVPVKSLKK
The experiment in a line: PAF Radioreceptor Binding Assay. The following applies: 3H-PAF. As to the method: Platelet rich plasma is prepared by centrifugation of citrate-treated dog blood. Acidification to pH 6.5 with 0.15M citric acid and centrifugation for 10 minutes at 1000 g yields a platelet pellet which is then washed by resuspension in EDTA-Phosphate Buffered Saline (PBS) and recentrifuged. The washed platelet preparation is adjusted to 2×10^7 platelets/50 μl in 0.1% BSA-PBS.
To a […] microfuge tube containing 50 μl silicone oil (specific gravity 1.023) is added buffer, PAF standard or analog, or an extract to bring the aqueous volume to 150 μl. 50 μl of ^3 H-PAF (10,000 cpm, 45 Ci/mM) is added followed by 2×10^7 dog platelets. After mixing, incubating for 10 minutes at room temperature, and centrifuging for 1 minute in a Beckman Microfuge B (8000 g), the pellet is removed by clipping off the tip of the tube, solubilizing the platelets with 200 μl of 50% methanol, and counting in 10 ml of Aquasol. […] Results obtained with representative compounds of the present invention in this assay are summarized hereinafter in Table I.

In the next assay the target is T3, Δ^5 -Lipoxygenase (Rattus norvegicus, UniProt P12527).
T3 construct: using rat basophil leukemia cells (RBL-1 cells) as the enzyme source; endogenous in cells; host or cells: RBL-1 (rat basophil leukemia) cells, 49,300×g supernatant of homogenate
T3 sequence (P12527 1-673): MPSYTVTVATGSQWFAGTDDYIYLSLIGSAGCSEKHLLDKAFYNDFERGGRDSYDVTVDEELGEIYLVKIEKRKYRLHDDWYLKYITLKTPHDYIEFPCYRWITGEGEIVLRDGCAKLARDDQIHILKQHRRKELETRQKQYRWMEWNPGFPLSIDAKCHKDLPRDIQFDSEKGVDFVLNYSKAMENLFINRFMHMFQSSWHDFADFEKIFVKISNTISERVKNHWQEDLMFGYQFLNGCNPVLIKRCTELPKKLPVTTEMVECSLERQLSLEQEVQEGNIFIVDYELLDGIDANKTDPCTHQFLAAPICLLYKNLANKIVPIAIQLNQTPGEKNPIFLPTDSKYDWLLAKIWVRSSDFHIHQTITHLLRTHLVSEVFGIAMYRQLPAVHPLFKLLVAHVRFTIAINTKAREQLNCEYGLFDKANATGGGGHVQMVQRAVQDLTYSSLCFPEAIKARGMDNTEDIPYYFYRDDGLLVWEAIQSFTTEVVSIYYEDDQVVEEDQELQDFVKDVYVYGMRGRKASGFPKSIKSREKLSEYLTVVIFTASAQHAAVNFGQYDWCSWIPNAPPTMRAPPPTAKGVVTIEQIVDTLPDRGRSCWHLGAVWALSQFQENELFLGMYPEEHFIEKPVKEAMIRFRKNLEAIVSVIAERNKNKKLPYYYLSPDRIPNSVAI
Kind of assay: Δ^5 -Lipoxygenase Inhibition. Type of assay: biochemical. The conditions noted are these: at 10^-5 M; RBL-1 cell supernatant. The method, then: Δ^5 -Lipoxygenase inhibition was measured by following the conversion of ^14 C-arachidonic acid to ^14 C-5-HETE, using rat basophil leukemia cells (RBL-1 cells) as the enzyme source. These cells were maintained in stationary stock cultures and grown in spinner cultures prior to isolation by centrifugation at 4° C. at 1,500×g for 10 minutes. The cells were washed three times at 4° C. with 0.05M Tris HCl (ph 7.2) containing 1 mM EDTA, 14 μM indomethacin and 0.9% NaCl. They were then homogenized at 0°-4° C. using a glass/glass homogenizer in 0.05M Tris-HCl (pH 7.2) containing 1 mM EDTA and 14 μM indomethacin. The homogenate was then centrifuged at 49,300×g for 20 minutes (0°-4° C.) and the resulting supernatant frozen in small aliquots in a dry ice/acetone bath prior to storage at -80° C. Under these conditions, the enzyme was stable to freezing and thawing and to preincubation for 10 minutes at 30° C.
For enzyme assay, 100-200 μl of enzyme was incubated in the presence and absence of test compound (prepared in DMSO) for 10 minutes at 30° C. in 0.05M Tris-HCl buffer (pH 7.2) containing 1 mM glutathione, 2 mM CaCl2, 14 μM indomethacin and 0.25 and 0.5 mM EDTA (final volume 400 μl). The final DMSO concentration in these assays was 4%. The assay was initiated by the addition of 100 μl ^14 C-arachidonic acid (58 mCi/mmole) and incubations were carried out for 10 minutes at 37° C. in a shaking water bath. The reactions were stopped by the simultaneous addition of 4.0 ml of diethylether and 100 μl of 1.0 m citric acid, while the tubes were vigorously vortexed. The ^14 C-5-HETE generated by the enzyme was extracted into the acidified ether layer which was separated from the aqueous layer by freezing the assay tubes in a dry ice/acetone bath prior to decanting the liquid ether layer. The ether layer was evaporated to dryness under N2, the residue dissolved in 65 μl chloroform:methanol (2:1 v/v), prior to separating ^14 C-5-HETE from other ^14 C-labeled compounds on silica gel impregnated glass fiber TLC plates utilizing an elution solvent of isoctane:methylethylketone:acetic acid (100:9:1 v/v). ^14 C-5-HETE was identified by its co-chromatography with a chemically synthesized standard. The radioactive peaks of the chromatogram were cut out and the radioactivity was quantitated by liquid scintillation counting. The amount of 5-HETE obtained per sample was expressed as the percent of total and was calculated in the basis of: [formula] in order to evaluate the effect of the test compounds, the mean percent inhibition of ^14 C-5-HETE production was calculated. The IC50 for a drug was determined from a linear regression analysis of a plot of the mean percent inhibition vs drug concentration.

Assay [4] relates to LTE4-induced increase of vascular permeability in rat skin. The experiment in a line: Rat Skin Permeability, In Vivo (LTE4-induced wheal). The following applies: LTE4 intradermal.

In turn, `CC(C)c1ccc2ncn(/C=C/C(=O)N(C)CCCCc3cccnc3)c(=O)c2c1` registered an inhibition at 0.1 µM on TXA2 synthase of 48%. Moreover, the IC50 in assay [1] amounted to 10 µM.

At TXA2 synthase (at 10^-6 M), `CC(C)c1ccc2ncn(/C=C/C(=O)NCCNCc3cccnc3)c(=O)c2c1` returned an inhibition at 1 µM of 33%. In assay [1], the IC50 came to 8 µM.

Regarding `CC(C)c1ccc2ncn(/C=C/C(=O)NCCCCc3cccnc3)c(=O)c2c1` [drawing 29], in assay [2], the “Peak Hypertension (Δmm Hg)” value was 21 ± 6 Δmm Hg, the “% Arrhythmias” value is recorded as 1 ± 1% and the “Peak Hypotension (Δmm Hg)” value is reported as -45 ± 4 Δmm Hg.

Turning to `CC(C)c1ccc2ncn(/C=C/C(=O)NCCCCn3ccnc3)c(=O)c2c1` [drawing 31], in assay [2], the “Peak Hypertension (Δmm Hg)” value is on record as 10 ± 0 Δmm Hg, the “% Arrhythmias” value was 0 ± 3% and the “Peak Hypotension (Δmm Hg)” value was -45 ± 8 Δmm Hg.

As for `CC(C)c1ccc2ncn(/C=C/C(=O)NCCCCCCc3cccnc3)c(=O)c2c1`, the IC50 in assay [3] is more than 1000 nM.

Turning to `CC(C)c1ccc2ncn(/C=C/C(=O)NCCSc3ccncc3)c(=O)c2c1`, 0.1 µM produced 31% inhibition at TXA2 synthase. The compound further showed an inhibition at 10 µM against Δ^5 -Lipoxygenase of 56%. Moreover, the IC50 in assay [1] is 10 µM.

In the case of `CC(C)c1cc(C(C)C)c2ncn(/C=C/C(=O)NCCCCc3cccnc3)c(=O)c2c1`, testing at 0.1 µM against TXA2 synthase gave an inhibition of 51%. Besides, the half-inhibitory concentration (IC50) in assay [1] turned out to be 1 µM.

Turning to `CC(C)c1ccc2ncn(/C=C/C(=O)NCCCCOc3cccnc3)c(=O)c2c1` [drawing 30], in assay [2], the “Peak Hypertension (Δmm Hg)” value is given as 19 ± 7 Δmm Hg, the “% Arrhythmias” value was 0 ± 0% and the “Peak Hypotension (Δmm Hg)” value is -42 ± 9 Δmm Hg.

`CC(C)c1ccc2ncn(/C=C/C(=O)NCCCCCCNc3ccccn3)c(=O)c2c1` yielded an inhibition at 10 µM on Δ^5 -Lipoxygenase of 25%. The half-inhibitory concentration (IC50) in assay [1] was 5 µM.

Take `CC(C)c1ccc2ncn(/C=C/C(=O)NCCCCn3ccnc3)c(=O)c2c1` [Compound C, N-[4-(1H-imidazol-1-yl)butyl]-(E)-3-[6-(1-methylethyl)-4-oxo-4H quinazolin-3-yl]-2-propenamide]: the ED50 in assay [4] (iv, 0.5 h, i.v., read-out: I.D.50, skin wheal, i.v.) turned out to be 17 mg/kg; in assay [4] (po, read-out: I.D.50, skin wheal, oral) it was 96 mg/kg.
